# According to patent US8053418B2, “Anti-penicillin resistant pneumococci agent and novel 16-membered macrolide derivative” (Microbial Chemistry Research Foundation, priority 2005, dated 2011):
# Read-outs that look alike come from different tables or passages of the source.
# Tests used:
# Format in all cases: cell-based
# [1] = system: Streptococcus pneumoniae IMC B-0919 (PRSP); experiment: Antimicrobial activity test (MIC), clinical isolate IMC B-0919
# Description: (§1) Using Streptococcus pneumoniae that include clinical isolates of PRSP, the antimicrobial activity of each of the prepared anti-PRSP agents was measured in accordance with the “determination method of minimum inhibitory concentration of drug against bacteria” of Japanese Society of Chemotherapy (for re-revised version, see Chemotherapy 29; 76, 1981).
# (§2) 11 test strains of Streptococcus pneumoniae including IMC B-0919 are all clinical isolates, of which 2 strains, IMC B-0921 and IMC B-1229, are classified into penicillin susceptible Streptococcus pneumoniae (PSSP) and the remaining 9 strains are classified into penicillin-resistant Streptococcus pneumoniae (PRSP) (according to NCCLS standards).
# [2] = system: Streptococcus pneumoniae IMC B-0920 (PRSP); experiment: Antimicrobial activity test (MIC), clinical isolate IMC B-0920
# Description: as §1, §2
# [3] = system: Streptococcus pneumoniae IMC B-0922 (PRSP); experiment: Antimicrobial activity test (MIC), clinical isolate IMC B-0922
# Description: as §1, §2
# [4] = system: Streptococcus pneumoniae IMC B-1231 (PRSP); experiment: Antimicrobial activity test (MIC), clinical isolate IMC B-1231
# Description: as §1, §2
# [5] = system: Streptococcus pneumoniae IMC B-1232 (PRSP); experiment: Antimicrobial activity test (MIC), clinical isolate IMC B-1232
# Description: as §1, §2
# [6] = system: Streptococcus pneumoniae IMC B-1233 (PRSP); experiment: Antimicrobial activity test (MIC), clinical isolate IMC B-1233
# Description: as §1, §2
# [7] = system: Streptococcus pneumoniae IMC B-1234 (PRSP); experiment: Antimicrobial activity test (MIC), clinical isolate IMC B-1234
# Description: as §1, §2
# [8] = system: Streptococcus pneumoniae IMC B-1235 (PRSP); experiment: Antimicrobial activity test (MIC), clinical isolate IMC B-1235
# Description: as §1, §2
# [9] = system: Streptococcus pneumoniae IMC B-1236 (PRSP); experiment: Antimicrobial activity test (MIC), clinical isolate IMC B-1236
# Description: as §1, §2
# [10] = system: Streptococcus pneumoniae IMC B-0921 (PSSP); experiment: Antimicrobial activity test (MIC), clinical isolate IMC B-0921
# Description: as §1, §2
# [11] = system: Streptococcus pneumoniae IMC B-1229 (PSSP); experiment: Antimicrobial activity test (MIC), clinical isolate IMC B-1229
# Description: as §1, §2
# [12] = PRSP clinical isolate IMC B-0919
# [13] = PRSP clinical isolate IMC B-0920
# [14] = PRSP clinical isolate IMC B-0922
# [15] = PRSP clinical isolate IMC B-1231
# [16] = PRSP clinical isolate IMC B-1232
# [17] = PRSP clinical isolate IMC B-1233
# [18] = PRSP clinical isolate IMC B-1234
# [19] = PRSP clinical isolate IMC B-1235
# [20] = PRSP clinical isolate IMC B-1236
# [21] = PSSP clinical isolate IMC B-0921
# [22] = PSSP clinical isolate IMC B-1229
# [23] = Streptococcus pneumoniae IMC B-0919, PRSP
# [24] = Streptococcus pneumoniae IMC B-0920, PRSP
# [25] = Streptococcus pneumoniae IMC B-0922, PRSP
# [26] = Streptococcus pneumoniae IMC B-1231, PRSP
# [27] = Streptococcus pneumoniae IMC B-1232, PRSP
# [28] = Streptococcus pneumoniae IMC B-1233, PRSP
# [29] = Streptococcus pneumoniae IMC B-1234, PRSP
# [30] = Streptococcus pneumoniae IMC B-1235, PRSP
# [31] = Streptococcus pneumoniae IMC B-1236, PRSP
# [32] = Streptococcus pneumoniae IMC B-0921, PSSP
# [33] = Streptococcus pneumoniae IMC B-1229, PSSP
# [34] = Streptococcus pneumoniae IMC B-0919, PRSP, read-out: MIC
# [35] = Streptococcus pneumoniae IMC B-0920, PRSP, read-out: MIC
# [36] = Streptococcus pneumoniae IMC B-0922, PRSP, read-out: MIC
# [37] = Streptococcus pneumoniae IMC B-1231, PRSP, read-out: MIC
# [38] = Streptococcus pneumoniae IMC B-1232, PRSP, read-out: MIC
# [39] = Streptococcus pneumoniae IMC B-1233, PRSP, read-out: MIC
# [40] = Streptococcus pneumoniae IMC B-1234, PRSP, read-out: MIC
# [41] = Streptococcus pneumoniae IMC B-1235, PRSP, read-out: MIC
# [42] = Streptococcus pneumoniae IMC B-1236, PRSP, read-out: MIC
# [43] = Streptococcus pneumoniae IMC B-0921, PSSP, read-out: MIC
# [44] = Streptococcus pneumoniae IMC B-1229, PSSP, read-out: MIC
smiles,measurement,setting,value
CCC1OC(=O)CCC(C)C(OC2OC(C)CC(N(C)C)C2O)C(CC=O)CC(C)C(=O)C=CC(C)=CC1CN(C)C (centres unmarked) [MKT-3101],MIC,[1]; [12],0.78 mg/L
same,MIC,[2]; [13],0.78 mg/L
same,MIC,[3]; [14],0.39 mg/L
same,MIC,[4]; [15],12.5 mg/L
same,MIC,[5]; [16],0.2 mg/L
same,MIC,[6]; [17],0.2 mg/L
same,MIC,[7]; [18],0.2 mg/L
same,MIC,[8]; [19],25 mg/L
same,MIC,[9]; [20],50 mg/L
same,MIC,[10]; [21],0.2 mg/L
same,MIC,[11]; [22],0.2 mg/L
CCC1OC(=O)CCC(C)C(OC2OC(C)CC(N(C)C)C2O)C(CC=O)CC(C)C(=O)C=CC(C)=CC1CNC(C)=O (centres unmarked) [MKT-3201],MIC,[1]; [12],0.78 mg/L
same,MIC,[2]; [13],0.78 mg/L
same,MIC,[3]; [14],0.39 mg/L
same,MIC,[4]; [15],1.56 mg/L
same,MIC,[5]; [16],0.39 mg/L
same,MIC,[6]; [17],0.39 mg/L
same,MIC,[7]; [18],0.39 mg/L
same,MIC,[8]; [19],12.5 mg/L
same,MIC,[9]; [20],50 mg/L
same,MIC,[10]; [21],0.2 mg/L
same,MIC,[11]; [22],0.2 mg/L
CCC1OC(=O)CCC(C)C(OC2OC(C)CC(N(C)C)C2O)C(CC=O)CC(C)C(=O)C=CC(C)=CC1CNC(=O)Cc1cccnc1 (centres unmarked) [MKT-3216],MIC,[1]; [23],0.10 mg/L
same,MIC,[2]; [24],0.10 mg/L
same,MIC,[3]; [25],0.10 mg/L
same,MIC,[4]; [26],6.25 mg/L
same,MIC,[5]; [27],0.05 mg/L
same,MIC,[6]; [28],0.05 mg/L
same,MIC,[7]; [29],0.05 mg/L
same,MIC,[8]; [30],12.5 mg/L
same,MIC,[9]; [31],12.5 mg/L
same,MIC,[10]; [32],0.10 mg/L
same,MIC,[11]; [33],0.10 mg/L
CCC1OC(=O)CCC(C)C(OC2OC(C)CC(N(C)C)C2O)C(CC=O)CC(C)C(=O)C=CC(C)=CC1CN(C)CCc1ccc(OC)c(OC)c1 (centres unmarked) [MKT-6104],MIC,[1]; [12],1.56 mg/L
same,MIC,[2]; [13],0.78 mg/L
same,MIC,[3]; [14],0.78 mg/L
same,MIC,[4]; [15],50 mg/L
same,MIC,[5]; [16],1.56 mg/L
same,MIC,[6]; [17],1.56 mg/L
same,MIC,[7]; [18],1.56 mg/L
same,MIC,[8]; [19],25 mg/L
same,MIC,[9]; [20],25 mg/L
same,MIC,[10]; [21],0.78 mg/L
same,MIC,[11]; [22],1.56 mg/L
CCC1OC(=O)CCC(C)C(OC2OC(C)CC(N(C)C)C2O)C(CC=O)CC(C)C(=O)C=CC(C)=CC1CN1CCC(CCO)CC1 (centres unmarked) [MKT-6113],MIC,[1]; [23],0.78 mg/L
same,MIC,[2]; [24],1.56 mg/L
same,MIC,[3]; [25],1.56 mg/L
same,MIC,[4]; [26],>50 mg/L
same,MIC,[5]; [27],1.56 mg/L
same,MIC,[6]; [28],0.78 mg/L
same,MIC,[7]; [29],0.39 mg/L
same,MIC,[8]; [30],>50 mg/L
same,MIC,[9]; [31],>50 mg/L
same,MIC,[10]; [32],0.20 mg/L
same,MIC,[11]; [33],0.39 mg/L
"CC[C@H]1OC(=O)[C@H](C)[C@@H](O[C@H]2C[C@@](C)(OC)[C@@H](O)[C@H](C)O2)[C@H](C)[C@@H](O[C@@H]2O[C@H](C)C[C@H](N(C)C)[C@H]2O)[C@](C)(OC)C[C@@H](C)C(=O)[C@H](C)[C@@H](O)[C@]1(C)O [clarithromycin, reference compound]",MIC,[1]; [34],0.2 mg/L
same,MIC,[2]; [35],0.2 mg/L
same,MIC,[3]; [36],0.2 mg/L
same,MIC,[4]; [37],25 mg/L
same,MIC,[5]; [38],0.39 mg/L
same,MIC,[6]; [39],0.05 mg/L
same,MIC,[7]; [40],0.05 mg/L
same,MIC,[8]; [41],> 100 mg/L
same,MIC,[9]; [42],> 100 mg/L
same,MIC,[10]; [43],0.1 mg/L
same,MIC,[11]; [44],0.1 mg/L
"CC[C@H]1OC(=O)C[C@@H](O)[C@H](C)[C@@H](O[C@@H]2O[C@H](C)[C@@H](O[C@H]3C[C@@](C)(O)[C@@H](O)[C@H](C)O3)[C@H](N(C)C)[C@H]2O)[C@@H](CC=O)C[C@@H](C)C(=O)/C=C/C(C)=C/[C@@H]1CO[C@@H]1O[C@H](C)[C@@H](O)[C@@H](OC)[C@H]1OC [tylosin, reference compound]",MIC,[1]; [34],0.39 mg/L
same,MIC,[2]; [35],0.39 mg/L
same,MIC,[3]; [36],0.39 mg/L
same,MIC,[4]; [37],100 mg/L
same,MIC,[5]; [38],0.39 mg/L
same,MIC,[6]; [39],0.78 mg/L
same,MIC,[7]; [40],0.39 mg/L
same,MIC,[8]; [41],> 100 mg/L
same,MIC,[9]; [42],> 100 mg/L
same,MIC,[10]; [43],0.39 mg/L
same,MIC,[11]; [44],0.39 mg/L
